Data published in ChEMBL document CHEMBL1152860, “Synthesis and antiproliferative activity of 3-amino-N-phenyl-1H-indazole-1-carboxamides” (2009).
Active and inactive are the calls of the source. The calls are words filed in the database; no cut-off is given here.

Tests used:
[1] = tested on: HT-29; assay: Growth inhibition of human HT-29 cells after 48 hrs by SRB assay; type: functional; conditions: HT-29, 48 h
[2] = tested on: SR; assay: Cell cycle arrest in human SR cells assessed as accumulation at G0/G1 phase at 0.0153 uM after 24 hrs using propidium iodide staining by flow cytometry; type: functional, cell-based
[3] = tested on: HL-60(TB); assay: Growth inhibition of human HL-60(TB) cells after 48 hrs by SRB assay; type: functional; conditions: HL-60, 48 h; for CC50: read-out: LC50 (the source's name)
[4] = tested on: RPMI-8226; assay: Growth inhibition of human RPMI8226 cells after 48 hrs by SRB assay; type: functional; conditions: RPMI-8226, 48 h; for CC50: read-out: LC50 (the source's name)
[5] = tested on: SR; assay: Growth inhibition of human SR cells after 48 hrs by SRB assay; type: functional
[6] = tested on: A549; assay: Growth inhibition of human A549 cells after 48 hrs by SRB assay; type: functional; conditions: A549, 48 h
[7] = tested on: HOP-62; assay: Growth inhibition of human HOP62 cells after 48 hrs by SRB assay; type: functional; conditions: HOP-62, 48 h
[8] = tested on: NCI-H226; assay: Growth inhibition of human NCI-H226 cells after 48 hrs by SRB assay; type: functional; conditions: NCI-H226, 48 h
[9] = tested on: NCI-H23; assay: Growth inhibition of human NCI-H23 cells after 48 hrs by SRB assay; type: functional; conditions: NCI-H23, 48 h
[10] = tested on: NCI-H322M; assay: Growth inhibition of human NCI-H322M cells after 48 hrs by SRB assay; type: functional
[11] = tested on: NCI-H460; assay: Growth inhibition of human NCI-H460 cells after 48 hrs by SRB assay; type: functional; conditions: NCI-H460, 48 h
[12] = tested on: NCI-H522; assay: Growth inhibition of human NCI-H522 cells after 48 hrs by SRB assay; type: functional; conditions: NCI-H522, 48 h
[13] = tested on: COLO 205; assay: Growth inhibition of human COLO205 cells after 48 hrs by SRB assay; type: functional; conditions: COLO 205, 48 h
[14] = tested on: HCC 2998; assay: Growth inhibition of human HCC2998 cells after 48 hrs by SRB assay; type: functional; conditions: HCC 2998, 48 h
[15] = tested on: HCT-116; assay: Growth inhibition of human HCT116 cells after 48 hrs by SRB assay; type: functional; conditions: HCT-116, 48 h
[16] = tested on: LOX IMVI; assay: Growth inhibition of human LOXIMVI cells after 48 hrs by SRB assay; type: functional
[17] = tested on: M14; assay: Growth inhibition of human M14 cells after 48 hrs by SRB assay; type: functional; conditions: M14, 48 h
[18] = tested on: SK-MEL-28; assay: Growth inhibition of human SK-MEL-28 cells after 48 hrs by SRB assay; type: functional; conditions: SK-MEL-28, 48 h
[19] = tested on: SK-MEL-5; assay: Growth inhibition of human SK-MEL-5 cells after 48 hrs by SRB assay; type: functional; conditions: SK-MEL-5, 48 h
[20] = tested on: UACC-257; assay: Growth inhibition of human UACC257 cells after 48 hrs by SRB assay; type: functional; conditions: UACC-257, 48 h
[21] = tested on: UACC-62; assay: Growth inhibition of human UACC62 cells after 48 hrs by SRB assay; type: functional; conditions: UACC-62, 48 h
[22] = tested on: IGROV-1; assay: Growth inhibition of human IGROV1 cells after 48 hrs by SRB assay; type: functional; conditions: IGROV-1, 48 h
[23] = tested on: OVCAR-4; assay: Growth inhibition of human OVCAR4 cells after 48 hrs by SRB assay; type: functional; conditions: OVCAR-4, 48 h
[24] = tested on: OVCAR-8; assay: Growth inhibition of human OVCAR8 cells after 48 hrs by SRB assay; type: functional; conditions: OVCAR-8, 48 h
[25] = tested on: SK-OV-3; assay: Growth inhibition of human SKOV3 cells after 48 hrs by SRB assay; type: functional; conditions: SK-OV-3, 48 h
[26] = tested on: A498; assay: Growth inhibition of human A498 cells after 48 hrs by SRB assay; type: functional; conditions: A498, 48 h
[27] = tested on: CAKI-1; assay: Growth inhibition of human Caki1 cells after 48 hrs by SRB assay; type: functional; conditions: CAKI-1, 48 h
[28] = tested on: RXF 393; assay: Growth inhibition of human […] cells after 48 hrs by SRB assay; type: functional; conditions: RXF 393, 48 h
[29] = tested on: SN12C; assay: Growth inhibition of human SN12C cells after 48 hrs by SRB assay; type: functional
[30] = tested on: TK-10; assay: Growth inhibition of human TK10 cells after 48 hrs by SRB assay; type: functional; conditions: TK-10, 48 h
[31] = tested on: PC-3; assay: Growth inhibition of human PC3 cells after 48 hrs by SRB assay; type: functional; conditions: PC-3, 48 h
[32] = tested on: DU-145; assay: Growth inhibition of human DU145 cells after 48 hrs by SRB assay; type: functional; conditions: DU-145, 48 h
[33] = tested on: MCF7; assay: Growth inhibition of human MCF7 cells after 48 hrs by SRB assay; type: functional; conditions: MCF7, 48 h
[34] = tested on: NCI/ADR-RES; assay: Growth inhibition of human NCI/ADR-RES cells after 48 hrs by SRB assay; type: functional
[35] = Growth inhibition of human Hs 578T cells after 48 hrs by SRB assay; type: functional
[36] = tested on: MDA-MB-435; assay: Growth inhibition of human MDA-MB-435 cells after 48 hrs by SRB assay; type: functional; conditions: MDA-MB-435, 48 h
[37] = tested on: BT-549; assay: Growth inhibition of human BT549 cells after 48 hrs by SRB assay; type: functional; conditions: BT-549, 48 h
[38] = tested on: T47D; assay: Growth inhibition of human T47D cells after 48 hrs by SRB assay; type: functional
[39] = tested on: KM12; assay: Growth inhibition of human KM12 cells after 48 hrs by SRB assay; type: functional; conditions: KM12, 48 h
[40] = tested on: SW-620; assay: Growth inhibition of human SW620 cells after 48 hrs by SRB assay; type: functional; conditions: SW-620, 48 h
[41] = tested on: SF-268; assay: Growth inhibition of human SF268 cells after 48 hrs by SRB assay; type: functional; conditions: SF-268, 48 h
[42] = tested on: SF-295; assay: Growth inhibition of human SF295 cells after 48 hrs by SRB assay; type: functional; conditions: SF-295, 48 h
[43] = tested on: SF-539; assay: Growth inhibition of human SF539 cells after 48 hrs by SRB assay; type: functional; conditions: SF-539, 48 h
[44] = tested on: SNB-19; assay: Growth inhibition of human SNB19 cells after 48 hrs by SRB assay; type: functional; conditions: SNB-19, 48 h
[45] = tested on: SNB-75; assay: Growth inhibition of human SNB75 cells after 48 hrs by SRB assay; type: functional; conditions: SNB-75, 48 h
[46] = tested on: U-251; assay: Growth inhibition of human U251 cells after 48 hrs by SRB assay; type: functional; conditions: U-251, 48 h
[47] = read-out: LC50 (the source's name)

Nc1nn(C(=O)Nc2ccc(Cc3ccccc3)cc2)c2ccccc12
GI50 [1]: 2.39 µM | TGI [1]: 17.6 µM | CC50 [1, 47]: 56.3 µM | Activity [2]: Active | GI50 [3]: 0.466 µM | TGI [3]: 15.2 µM | CC50 [3]: 54.9 µM | GI50 [4]: 1.86 µM | TGI [4]: 25.8 µM | CC50 [4]: 84 µM | GI50 [5]: 0.0153 µM | TGI [5]: 82.2 µM | CC50 [5, 47]: 34.8 µM | GI50 [6]: 12.9 µM | GI50 [7]: 13.7 µM | GI50 [8]: 13.5 µM | GI50 [9]: 16.8 µM | GI50 [10]: 27.8 µM | GI50 [11]: 0.408 µM | TGI [11]: 13 µM | CC50 [11, 47]: 84.6 µM | GI50 [12]: 2.9 µM | TGI [12]: > 100 µM | CC50 [12, 47]: > 100 µM | GI50 [13]: 13.4 µM | GI50 [14]: 4.27 µM | GI50 [15]: 7.03 µM | GI50 [16]: 0.477 µM | LC50 (concentration killing 50% of cells) [16]: 61.5 µM | TGI [16]: 16.1 µM | GI50 [17]: 0.772 µM | TGI [17]: > 100 µM | CC50 [17, 47]: > 100 µM | GI50 [18]: 11.5 µM | GI50 [19]: 2.22 µM | TGI [19]: 8.64 µM | CC50 [19, 47]: 34.3 µM | GI50 [20]: 10 µM | GI50 [21]: 0.353 µM | TGI [21]: > 100 µM | CC50 [21, 47]: > 100 µM | GI50 [22]: 6.98 µM | GI50 [23]: 10.7 µM | GI50 [24]: 21.9 µM | GI50 [25]: 36.9 µM | GI50 [26]: 16.7 µM | GI50 [27]: 21.1 µM | GI50 [28]: 22.2 µM | GI50 [29]: 12.9 µM | GI50 [30]: 27.2 µM | GI50 [31]: 13.5 µM | GI50 [32]: 1.02 µM | TGI [32]: 28.3 µM | CC50 [32, 47]: > 100 µM | GI50 [33]: 0.555 µM | TGI [33]: 8.82 µM | CC50 [33, 47]: 89.1 µM | GI50 [34]: 7.87 µM | GI50 [35]: 17.2 µM | GI50 [36]: 2.82 µM | TGI [36]: > 100 µM | CC50 [36, 47]: > 100 µM | GI50 [37]: 13.5 µM | GI50 [38]: 1.55 µM | TGI [38]: > 100 µM | CC50 [38, 47]: > 100 µM | GI50 [39]: 2.94 µM | TGI [39]: > 100 µM | CC50 [39, 47]: > 100 µM | GI50 [40]: 3.62 µM | GI50 [41]: 4.66 µM | GI50 [42]: 0.53 µM | TGI [42]: > 100 µM | CC50 [42, 47]: > 100 µM | GI50 [43]: 0.495 µM | TGI [43]: 5.36 µM | CC50 [43, 47]: > 100 µM | GI50 [44]: 22.8 µM | GI50 [45]: 17 µM | GI50 [46]: 13.9 µM

CCCCOc1ccc(NC(=O)n2nc(N)c3ccccc32)cc1
GI50 [1]: 13.5 µM | Activity [2]: Active | GI50 [3]: 2.23 µM | TGI [3]: 30.4 µM | CC50 [3]: > 100 µM | GI50 [4]: 2.72 µM | TGI [4]: 30.8 µM | CC50 [4]: > 100 µM | GI50 [5]: 16 µM | GI50 [6]: 23.5 µM | GI50 [7]: 20.8 µM | GI50 [8]: 21.2 µM | GI50 [9]: 19.4 µM | GI50 [10]: 20.6 µM | GI50 [11]: 15.7 µM | GI50 [12]: 27.4 µM | GI50 [13]: 13.9 µM | GI50 [14]: 19 µM | GI50 [15]: 19.9 µM | GI50 [16]: 12.2 µM | GI50 [17]: 18.6 µM | GI50 [18]: 32.6 µM | GI50 [19]: 15.2 µM | GI50 [20]: 29.2 µM | GI50 [21]: 14.7 µM | GI50 [22]: 35.5 µM | GI50 [23]: 30.7 µM | GI50 [24]: 35.9 µM | GI50 [25]: 44 µM | GI50 [26]: 19 µM | GI50 [27]: 28.3 µM | GI50 [28]: 29.6 µM | GI50 [29]: 23.1 µM | GI50 [30]: 24.2 µM | GI50 [31]: 14.9 µM | GI50 [32]: 25 µM | GI50 [33]: 14.5 µM | GI50 [34]: 23.7 µM | GI50 [35]: 20.2 µM | GI50 [36]: 19.1 µM | GI50 [37]: 14 µM | GI50 [38]: 14.8 µM | GI50 [39]: 11.3 µM | GI50 [40]: 18.3 µM | GI50 [41]: 25.8 µM | GI50 [42]: 21.7 µM | GI50 [43]: 17.8 µM | GI50 [44]: 42.7 µM | GI50 [45]: 28.6 µM | GI50 [46]: 30.5 µM
